Measured values as given in the kinase profiling compilation of Christmann-Franck et al. (2016).

Legend:
Assay in all cases: Free Choice Kinase Assay Projects, Flashplate
PDGFRB (human) = PDGFRB (human) (UniProt P09619); conditions: compound 10.0 µM; ATP 0.3 µM
AXL (human) = AXL (human) (UniProt P30530); conditions: compound 10.0 µM; ATP 0.3 µM
PLK1 (human) = PLK1 (human) (UniProt P53350); conditions: compound 10.0 µM; ATP 1 µM
AURKA (human) = AURKA (human) (UniProt O14965); conditions: compound 10.0 µM; ATP 10 µM
NUAK1 (human) = NUAK1 (human) (UniProt O60285); conditions: compound 10.0 µM; ATP 1 µM
CSNK2A1 (human) = CSNK2A1 (human) (UniProt P68400); conditions: compound 10.0 µM; ATP 0.1 µM
CDK4 CCND1 (human) = CDK4 CCND1 (human) (UniProt P11802+P24385); conditions: compound 10.0 µM; ATP 3 µM
MAPK10 (human) = MAPK10 (human) (UniProt P53779); conditions: compound 10.0 µM; ATP 0.3 µM
CDK2 CCNA2 (human) = CDK2 CCNA2 (human) (UniProt P24941+P20248); conditions: compound 10.0 µM; ATP 0.3 µM
AKT1 (human) = AKT1 (human) (UniProt P31749); conditions: compound 10.0 µM; ATP 3 µM
Chain of AKT1 (human) (P31749 whole entry, looked up): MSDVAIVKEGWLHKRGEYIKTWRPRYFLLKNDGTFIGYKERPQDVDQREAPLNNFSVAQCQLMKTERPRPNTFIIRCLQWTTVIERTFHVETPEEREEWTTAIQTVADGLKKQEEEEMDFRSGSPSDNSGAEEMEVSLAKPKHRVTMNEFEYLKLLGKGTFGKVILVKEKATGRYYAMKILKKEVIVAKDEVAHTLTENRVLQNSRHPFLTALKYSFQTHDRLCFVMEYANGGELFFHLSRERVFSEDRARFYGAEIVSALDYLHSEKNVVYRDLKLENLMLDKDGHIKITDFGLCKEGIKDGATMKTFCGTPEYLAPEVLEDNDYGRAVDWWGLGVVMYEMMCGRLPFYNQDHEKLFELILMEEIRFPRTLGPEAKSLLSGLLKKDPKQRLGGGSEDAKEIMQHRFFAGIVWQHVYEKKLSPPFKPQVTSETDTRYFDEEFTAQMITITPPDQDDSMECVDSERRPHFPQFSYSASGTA

PLK4 (human) = PLK4 (human) (UniProt O00444); conditions: compound 10.0 µM; ATP 0.3 µM
IGF1R (human) = IGF1R (human) (UniProt P08069); conditions: compound 10.0 µM; ATP 1 µM
MAP3K8 (human) = MAP3K8 (human) (UniProt P41279); conditions: compound 10.0 µM; ATP 3 µM
PTK2 (human) = PTK2 (human) (UniProt Q05397); conditions: compound 10.0 µM; ATP 1 µM
KDR (human) = KDR (human) (UniProt P35968); conditions: compound 10.0 µM; ATP 1 µM
TEK (human) = TEK (human) (UniProt Q02763); conditions: compound 10.0 µM; ATP 1 µM
Chain of TEK (human) (Q02763 whole entry, looked up): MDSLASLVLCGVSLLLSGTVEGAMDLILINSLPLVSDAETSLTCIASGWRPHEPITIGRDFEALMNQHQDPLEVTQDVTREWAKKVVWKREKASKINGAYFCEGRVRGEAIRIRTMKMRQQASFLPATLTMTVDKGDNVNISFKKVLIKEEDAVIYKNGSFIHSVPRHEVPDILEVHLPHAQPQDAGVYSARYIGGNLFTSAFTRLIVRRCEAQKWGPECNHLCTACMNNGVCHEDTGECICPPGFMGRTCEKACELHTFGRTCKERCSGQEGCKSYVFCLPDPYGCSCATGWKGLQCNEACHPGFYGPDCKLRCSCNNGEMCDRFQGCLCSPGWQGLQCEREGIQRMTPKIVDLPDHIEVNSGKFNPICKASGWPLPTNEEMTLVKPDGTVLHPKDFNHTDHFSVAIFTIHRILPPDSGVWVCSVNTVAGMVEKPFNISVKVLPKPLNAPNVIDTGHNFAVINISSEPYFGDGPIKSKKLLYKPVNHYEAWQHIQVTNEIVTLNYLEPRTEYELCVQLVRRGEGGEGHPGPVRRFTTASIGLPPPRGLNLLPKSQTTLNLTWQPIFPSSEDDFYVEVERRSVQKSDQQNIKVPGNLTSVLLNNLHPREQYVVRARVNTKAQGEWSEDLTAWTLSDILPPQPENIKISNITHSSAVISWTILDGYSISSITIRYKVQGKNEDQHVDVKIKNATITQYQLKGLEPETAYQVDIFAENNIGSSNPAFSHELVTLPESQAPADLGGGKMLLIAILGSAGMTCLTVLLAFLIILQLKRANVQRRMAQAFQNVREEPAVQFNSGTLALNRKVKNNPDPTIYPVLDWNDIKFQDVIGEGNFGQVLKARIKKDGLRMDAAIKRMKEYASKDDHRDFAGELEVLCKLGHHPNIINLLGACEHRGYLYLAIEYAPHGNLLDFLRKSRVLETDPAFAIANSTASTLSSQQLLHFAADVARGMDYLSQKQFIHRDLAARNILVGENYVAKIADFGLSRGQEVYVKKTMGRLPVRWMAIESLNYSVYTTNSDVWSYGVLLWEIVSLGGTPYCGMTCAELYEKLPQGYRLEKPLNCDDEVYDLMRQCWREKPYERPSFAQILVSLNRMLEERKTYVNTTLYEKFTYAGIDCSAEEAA

EPHB4 (human) = EPHB4 (human) (UniProt P54760); conditions: compound 10.0 µM; ATP 1 µM
MET (human) = MET (human) (UniProt P08581); conditions: compound 10.0 µM; ATP 0.3 µM
Chain of MET (human) (P08581 whole entry, looked up): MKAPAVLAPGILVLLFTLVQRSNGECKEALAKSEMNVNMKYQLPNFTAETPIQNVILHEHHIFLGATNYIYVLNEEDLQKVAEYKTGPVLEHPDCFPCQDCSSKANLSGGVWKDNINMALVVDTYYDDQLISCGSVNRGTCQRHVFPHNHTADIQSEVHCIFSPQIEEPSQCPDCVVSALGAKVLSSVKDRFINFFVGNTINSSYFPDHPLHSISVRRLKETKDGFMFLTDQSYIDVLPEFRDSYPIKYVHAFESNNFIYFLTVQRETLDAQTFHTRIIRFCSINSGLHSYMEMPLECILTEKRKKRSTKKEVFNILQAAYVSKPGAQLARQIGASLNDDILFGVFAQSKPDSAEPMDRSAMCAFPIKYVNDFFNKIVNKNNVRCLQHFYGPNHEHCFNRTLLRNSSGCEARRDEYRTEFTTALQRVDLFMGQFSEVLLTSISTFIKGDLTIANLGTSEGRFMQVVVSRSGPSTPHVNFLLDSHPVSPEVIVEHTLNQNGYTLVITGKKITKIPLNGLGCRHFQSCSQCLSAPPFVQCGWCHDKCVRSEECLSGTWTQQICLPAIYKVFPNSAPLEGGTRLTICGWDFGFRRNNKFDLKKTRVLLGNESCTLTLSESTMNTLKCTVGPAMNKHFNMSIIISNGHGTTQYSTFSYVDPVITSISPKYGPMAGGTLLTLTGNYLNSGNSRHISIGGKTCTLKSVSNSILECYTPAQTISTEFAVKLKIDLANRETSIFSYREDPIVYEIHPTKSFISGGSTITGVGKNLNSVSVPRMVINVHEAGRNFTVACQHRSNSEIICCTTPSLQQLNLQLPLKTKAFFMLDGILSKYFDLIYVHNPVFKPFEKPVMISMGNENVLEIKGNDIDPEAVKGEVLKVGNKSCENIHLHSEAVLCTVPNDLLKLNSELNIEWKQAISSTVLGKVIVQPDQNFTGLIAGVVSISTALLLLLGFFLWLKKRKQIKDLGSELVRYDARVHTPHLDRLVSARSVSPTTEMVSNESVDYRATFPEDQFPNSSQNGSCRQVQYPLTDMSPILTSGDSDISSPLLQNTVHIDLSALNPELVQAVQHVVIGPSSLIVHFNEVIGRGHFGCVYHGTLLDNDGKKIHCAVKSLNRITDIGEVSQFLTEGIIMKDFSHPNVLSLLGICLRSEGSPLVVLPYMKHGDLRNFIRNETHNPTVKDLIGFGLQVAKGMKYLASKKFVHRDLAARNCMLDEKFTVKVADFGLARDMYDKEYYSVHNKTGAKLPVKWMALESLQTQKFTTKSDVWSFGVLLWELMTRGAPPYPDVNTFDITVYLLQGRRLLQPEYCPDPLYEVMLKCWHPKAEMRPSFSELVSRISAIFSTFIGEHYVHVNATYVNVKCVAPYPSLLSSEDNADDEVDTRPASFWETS

MAPK14 (human) = MAPK14 (human) (UniProt Q16539); conditions: compound 10.0 µM; ATP 1 µM
ERBB2 (human) = ERBB2 (human) (UniProt P04626); conditions: compound 10.0 µM; ATP 1 µM
AURKB (human) = AURKB (human) (UniProt Q96GD4); conditions: compound 10.0 µM; ATP 10 µM
Chain of AURKB (human) (Q96GD4 whole entry, looked up): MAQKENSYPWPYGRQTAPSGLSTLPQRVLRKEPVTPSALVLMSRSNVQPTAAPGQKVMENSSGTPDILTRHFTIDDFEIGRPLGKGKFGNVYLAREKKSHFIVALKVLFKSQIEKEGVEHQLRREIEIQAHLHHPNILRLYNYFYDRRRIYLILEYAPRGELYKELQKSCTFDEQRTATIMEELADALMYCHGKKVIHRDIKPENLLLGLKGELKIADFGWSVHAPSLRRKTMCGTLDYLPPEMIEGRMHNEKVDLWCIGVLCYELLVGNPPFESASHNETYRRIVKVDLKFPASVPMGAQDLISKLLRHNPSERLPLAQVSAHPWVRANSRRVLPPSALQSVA

EGFR (human) = EGFR (human) (UniProt P00533); conditions: compound 10.0 µM; ATP 0.3 µM
SRC (human) = SRC (human) (UniProt P12931); conditions: compound 10.0 µM; ATP 0.3 µM

Chain of PDGFRB (human) (P09619 whole entry, looked up): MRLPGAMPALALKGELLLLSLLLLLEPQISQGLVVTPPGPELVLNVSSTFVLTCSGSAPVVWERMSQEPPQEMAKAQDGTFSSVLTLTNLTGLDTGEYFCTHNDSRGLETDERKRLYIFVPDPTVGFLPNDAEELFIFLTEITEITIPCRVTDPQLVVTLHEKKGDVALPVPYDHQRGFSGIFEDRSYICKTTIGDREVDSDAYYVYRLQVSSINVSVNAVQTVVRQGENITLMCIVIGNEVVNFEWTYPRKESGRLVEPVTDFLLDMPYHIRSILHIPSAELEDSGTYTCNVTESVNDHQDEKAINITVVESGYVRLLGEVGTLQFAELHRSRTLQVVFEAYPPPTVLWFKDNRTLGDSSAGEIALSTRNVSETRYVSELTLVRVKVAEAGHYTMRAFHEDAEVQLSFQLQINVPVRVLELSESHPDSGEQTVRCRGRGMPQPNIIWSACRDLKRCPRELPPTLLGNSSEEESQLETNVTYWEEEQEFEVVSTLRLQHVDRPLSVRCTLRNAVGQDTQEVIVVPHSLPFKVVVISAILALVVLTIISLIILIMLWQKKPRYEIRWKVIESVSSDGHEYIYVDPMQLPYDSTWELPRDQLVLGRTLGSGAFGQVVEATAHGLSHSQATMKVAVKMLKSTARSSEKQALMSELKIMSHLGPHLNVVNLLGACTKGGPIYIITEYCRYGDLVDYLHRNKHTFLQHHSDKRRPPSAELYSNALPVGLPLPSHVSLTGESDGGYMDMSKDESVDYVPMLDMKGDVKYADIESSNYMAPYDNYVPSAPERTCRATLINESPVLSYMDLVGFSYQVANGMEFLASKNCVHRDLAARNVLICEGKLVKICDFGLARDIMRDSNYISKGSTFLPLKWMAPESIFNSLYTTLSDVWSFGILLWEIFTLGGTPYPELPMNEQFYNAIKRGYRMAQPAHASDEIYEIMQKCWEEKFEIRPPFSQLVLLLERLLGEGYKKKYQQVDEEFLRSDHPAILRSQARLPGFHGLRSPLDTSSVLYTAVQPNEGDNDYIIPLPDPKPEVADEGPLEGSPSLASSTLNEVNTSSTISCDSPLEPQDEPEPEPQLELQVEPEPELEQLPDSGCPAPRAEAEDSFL
Chain of PLK1 (human) (P53350 whole entry, looked up): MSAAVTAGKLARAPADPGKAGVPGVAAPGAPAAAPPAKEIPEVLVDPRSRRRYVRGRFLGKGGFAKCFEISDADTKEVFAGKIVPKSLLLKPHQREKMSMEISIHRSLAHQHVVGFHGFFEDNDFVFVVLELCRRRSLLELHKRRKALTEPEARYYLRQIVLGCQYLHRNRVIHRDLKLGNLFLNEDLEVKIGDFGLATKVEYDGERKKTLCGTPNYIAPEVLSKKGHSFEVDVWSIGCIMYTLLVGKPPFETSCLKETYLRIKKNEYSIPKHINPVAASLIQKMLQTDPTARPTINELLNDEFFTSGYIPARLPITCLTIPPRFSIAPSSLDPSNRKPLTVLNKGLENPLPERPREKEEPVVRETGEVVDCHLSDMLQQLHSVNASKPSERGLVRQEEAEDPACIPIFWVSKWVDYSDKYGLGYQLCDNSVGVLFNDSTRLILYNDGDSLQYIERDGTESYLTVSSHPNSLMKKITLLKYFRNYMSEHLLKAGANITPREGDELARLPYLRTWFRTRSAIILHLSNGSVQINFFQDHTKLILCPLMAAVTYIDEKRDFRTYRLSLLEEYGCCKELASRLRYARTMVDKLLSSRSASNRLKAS

residual activity (PDGFRB (human))	residual activity (AXL (human))	residual activity (PLK1 (human))	residual activity (AURKA (human))	residual activity (NUAK1 (human))	residual activity (CSNK2A1 (human))	residual activity (CDK4 CCND1 (human))	residual activity (MAPK10 (human))	residual activity (CDK2 CCNA2 (human))	residual activity (AKT1 (human))	residual activity (PLK4 (human))	residual activity (IGF1R (human))	residual activity (MAP3K8 (human))	residual activity (PTK2 (human))	residual activity (KDR (human))	residual activity (TEK (human))	residual activity (EPHB4 (human))	residual activity (MET (human))	residual activity (MAPK14 (human))	residual activity (ERBB2 (human))	SMILES	other results
39%	59%	46%	54%	53%	77%	44%	17%	20%	60%	9%	17%	46%	124%	24%	11%	21%	40%	3%	9%	Fc1ccc(-c2[nH]c(SCc3cccc4ccccc34)nc2-c2ccncc2)cc1	residual activity (AURKB (human)): 57%; residual activity (EGFR (human)): 8%; residual activity (SRC (human)): 8%
44%	62%	60%	62%	71%	95%	48%	57%	43%	75%	24%	42%	58%	120%	38%	16%	42%	53%	9%	9%	Fc1ccc(-c2[nH]c(SCc3ccccc3)nc2-c2ccnc(Cl)c2)cc1	residual activity (AURKB (human)): 47%; residual activity (EGFR (human)): 7%; residual activity (SRC (human)): 17%
35%	76%	103%	52%	121%	95%	121%	17%	126%	144%	42%	79%	91%	88%	7%	18%	35%	58%	2%	2%	Oc1cccc(CSc2nc(-c3ccncc3)c(-c3ccc(F)cc3)[nH]2)c1	residual activity (AURKB (human)): 55%; residual activity (EGFR (human)): 3%; residual activity (SRC (human)): 12%
76%	82%	94%	79%	93%	94%	101%	41%	77%	110%	71%	72%	76%	86%	58%	50%	49%	89%	3%	23%	Fc1ccc(-c2[nH]c(SCc3ccccc3)nc2-c2ccncc2)cc1	residual activity (AURKB (human)): 80%; residual activity (EGFR (human)): 19%; residual activity (SRC (human)): 42%
80%	71%	92%	88%	89%	87%	99%	56%	54%	98%	74%	49%	85%	99%	52%	65%	55%	81%	10%	30%	Fc1ccc(-c2[nH]c(SCCCc3ccccc3)nc2-c2ccncc2)cc1	residual activity (AURKB (human)): 88%; residual activity (EGFR (human)): 31%; residual activity (SRC (human)): 33%
31%	42%	51%	18%	51%	68%	21%	9%	20%	76%	7%	13%	48%	65%	9%	5%	19%	23%	3%	4%	On1c(/C=C/c2ccccc2)nc(-c2ccncc2)c1-c1ccc(F)cc1	residual activity (AURKB (human)): 18%; residual activity (EGFR (human)): 1%; residual activity (SRC (human)): 5%
85%	85%	82%	80%	95%	83%	89%	58%	66%	137%	59%	60%	85%	98%	51%	48%	52%	76%	10%	29%	CSc1ccccc1CSc1nc(-c2ccncc2)c(-c2ccc(F)cc2)[nH]1	residual activity (AURKB (human)): 79%; residual activity (EGFR (human)): 30%; residual activity (SRC (human)): 29%
70%	75%	131%	93%	127%	86%	109%	88%	71%	155%	128%	41%	106%	90%	32%	34%	77%	76%	7%	9%	Fc1ccc(-c2[nH]c(SCc3ccccc3)nc2-c2ccnc(F)c2)cc1	residual activity (AURKB (human)): 85%; residual activity (EGFR (human)): 17%; residual activity (SRC (human)): 18%
29%	18%	114%	31%	109%	89%	109%	11%	234%	121%	56%	53%	104%	53%	2%	8%	9%	81%	1%	17%	CSc1nc(-c2ccnc(NC(=O)C3CC3)c2)c(-c2ccc(F)cc2)n1C	residual activity (AURKB (human)): 47%; residual activity (EGFR (human)): 11%; residual activity (SRC (human)): 13%
